# Data taken from patent US12655116B2, “Substituted isophthalic acid diamides” (Bayer Aktiengesellschaft, priority 2020, dated 2026).
# Tests used:
# ABUTH [1] = assay: Pre-emergence herbicidal action against ABUTH; assay type: in vivo, Abutilon theophrasti
# Method in brief: (§1)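 Greenhouse pots of sandy loam held seeds covered with soil, onto which the compound was applied before emergence. An aqueous suspension or emulsion of WP or EC was used at 600 to 800 l/ha with 0.2% wetting agent. Percent damage was judged visually at 3 weeks.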
# ALOMY [2] = assay: Pre-emergence herbicidal action against ALOMY; assay type: in vivo, Alopecurus myosuroides
# Method in brief: as §1
# AMARE [3] = assay: Pre-emergence herbicidal action against AMARE; assay type: in vivo, Amaranthus retroflexus
# Method in brief: as §1
# AVEFA = assay: Pre-emergence herbicidal action against AVEFA; assay type: in vivo, Avena fatua
# Method in brief: as §1
# ECHCG [4] = assay: Pre-emergence herbicidal action against ECHCG; assay type: in vivo, Echinochloa crus-galli
# Method in brief: as §1
# MATIN [5] = assay: Pre-emergence herbicidal action against MATIN; assay type: in vivo, Matricaria inodora
# Method in brief: as §1
# PHBPU [6] = assay: Pre-emergence herbicidal action against PHBPU; assay type: in vivo, Pharbitis purpurea; conditions: dosage 80 g/ha
# Method in brief: as §1
# POLCO = assay: Pre-emergence herbicidal action against POLCO; assay type: in vivo, Polygonum convolvulus
# Method in brief: as §1
# SETVI [7] = assay: Pre-emergence herbicidal action against SETVI; assay type: in vivo, Setaria viridis; conditions: dosage 80 g/ha
# Method in brief: as §1
# VERPE [8] = assay: Pre-emergence herbicidal action against VERPE; assay type: in vivo, Veronica persica
# Method in brief: as §1
# VIOTR [9] = assay: Pre-emergence herbicidal action against VIOTR; assay type: in vivo, Viola tricolor
# Method in brief: as §1
# DIGSA = assay: Pre-emergence herbicidal action against DIGSA; assay type: in vivo, Digitaria sanguinalis
# Method in brief: as §1
# ABUTH [10] = assay: Post-emergence herbicidal action against ABUTH; assay type: in vivo, Abutilon theophrasti; conditions: visual assessment about 3 weeks after treatment vs untreated controls
# Method in brief: (§2)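 A WP or EC formulation diluted in water with 0.2% wetting agent was sprayed at 600 to 800 l/ha onto one-leaf-stage plants grown in sandy loam. About 3 weeks later, action was rated visually in percent, 100% being dead plants.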
# ALOMY [11] = assay: Post-emergence herbicidal action against ALOMY; assay type: in vivo, Alopecurus myosuroides; conditions: visual assessment about 3 weeks after treatment vs untreated controls
# Method in brief: as §2
# ECHCG [12] = assay: Post-emergence herbicidal action against ECHCG; assay type: in vivo, Echinochloa crus-galli
# Method in brief: as §2
# MATIN [13] = assay: Post-emergence herbicidal action against MATIN; assay type: in vivo, Matricaria inodora; conditions: dosage 20 g/ha
# Method in brief: as §2
# PHBPU [14] = assay: Post-emergence herbicidal action against PHBPU; assay type: in vivo, Pharbitis purpurea
# Method in brief: as §2
# SETVI [15] = assay: Post-emergence herbicidal action against SETVI; assay type: in vivo, Setaria viridis; conditions: dosage 20 g/ha
# Method in brief: as §2
# VERPE [16] = assay: Post-emergence herbicidal action against VERPE; assay type: in vivo, Veronica persica; conditions: 20 g/ha
# Method in brief: as §2
# VIOTR [17] = assay: Post-emergence herbicidal action against VIOTR; assay type: in vivo, Viola tricolor
# Method in brief: as §2
# AMARE [18] = assay: Post-emergence herbicidal action against AMARE; assay type: in vivo, Amaranthus retroflexus; conditions: 20 g/ha, visual assessment about 3 weeks after treatment, 100% = plants have died, 0% = like control plants
# Method in brief: as §2
# [19] = 80 g/ha, scored visually after 3 weeks vs untreated controls (100% = plants have died, 0% = like control plants)
# [20] = dosage 20 g/ha, scored visually after 3 weeks vs untreated controls, 100% = plants have died, 0% = like control plants
# [21] = 80 g/ha, pre-emergence, scored visually after 3 weeks vs untreated controls (100% = plants have died, 0% = like control plants)
# [22] = 20 g/ha, scored visually after 3 weeks vs untreated controls, 100% = plants have died, 0% = like control plants
# [23] = 20 g/ha, scored visually after 3 weeks, 100% = plants have died, 0% = like control plants
smiles,measurement,setting,value
CCn1nnnc1NC(=O)c1ccc(C(F)F)c(C(=O)NC2CC2)c1OC [Example 2-74],Pre-emergence action against ABUTH (herbicidal activity),ABUTH [1]; [19],100%
same,Pre-emergence action against ABUTH (herbicidal activity in percent),ABUTH [1]; [20],100%
same,Pre-emergence action against ALOMY (herbicidal activity),ALOMY [2]; [21],100%
same,Pre-emergence action against AMARE in %,AMARE [3]; [22],100%
same,Pre-emergence action against AMARE in %,AMARE [3]; [19],100%
same,Pre-emergence action against AVEFA in %,"AVEFA; 80 g/ha, pre-emergence",80%
same,Pre-emergence action against ECHCG in %,ECHCG [4]; 80 g/ha,100%
same,Pre-emergence action against MATIN in %,MATIN [5]; dosage 20 g/ha,100%
same,Pre-emergence action against MATIN in %,MATIN [5]; dosage 80 g/ha,100%
same,Pre-emergence action against PHBPU in %,PHBPU [6],90%
same,Pre-emergence action against POLCO in %,POLCO; dosage 80 g/ha,80%
same,Pre-emergence action against SETVI in %,SETVI [7],100%
same,Pre-emergence action against VERPE in %,VERPE [8]; dosage 80 g/ha,90%
same,Pre-emergence action against VIOTR in %,VIOTR [9]; dosage 20 g/ha,100%
same,Pre-emergence action against VIOTR in %,VIOTR [9]; dosage 80 g/ha,100%
same,Pre-emergence action against DIGSA in %,DIGSA; dosage 20 g/ha,100%
same,Pre-emergence action against DIGSA in %,DIGSA; dosage 80 g/ha,100%
same,Post-emergence action against ABUTH in %,ABUTH [10]; dosage 5 g/ha,80%
same,Post-emergence action against ABUTH in %,ABUTH [10]; dosage 20 g/ha,80%
same,Post-emergence action against ALOMY in %,ALOMY [11]; dosage 20 g/ha,80%
same,Post-emergence action against ECHCG in %,ECHCG [12]; dosage 5 g/ha,80%
same,Post-emergence action against ECHCG in %,ECHCG [12]; dosage 20 g/ha,80%
same,Post-emergence action against MATIN in %,MATIN [13],80%
same,Post-emergence action against PHBPU in %,PHBPU [14]; dosage 20 g/ha,80%
same,Post-emergence action against SETVI in %,SETVI [15],90%
same,Post-emergence action against VERPE in %,VERPE [16],80%
same,Post-emergence action against VIOTR in %,VIOTR [17]; 20 g/ha,80%
CCc1c(C(=O)Nc2nnnn2C)ccc(C(F)(F)F)c1C(=O)NCC1CC1 [Example 1-274],Pre-emergence action against ABUTH (herbicidal activity),ABUTH [1]; [19],100%
same,Pre-emergence action against ABUTH (herbicidal activity in percent),ABUTH [1]; [20],100%
same,Pre-emergence action against ALOMY,ALOMY [2]; [23],80%
same,Pre-emergence action against ALOMY (herbicidal activity),ALOMY [2]; [21],90%
same,Pre-emergence action against AMARE in %,AMARE [3]; [22],100%
same,Pre-emergence action against AMARE in %,AMARE [3]; [19],100%
same,Pre-emergence action against AVEFA,AVEFA; [23],80%
same,Pre-emergence action against AVEFA in %,"AVEFA; 80 g/ha, pre-emergence",90%
same,Pre-emergence action against ECHCG in %,ECHCG [4]; 80 g/ha,100%
same,Pre-emergence action against MATIN in %,MATIN [5]; dosage 20 g/ha,100%
same,Pre-emergence action against MATIN in %,MATIN [5]; dosage 80 g/ha,100%
same,Pre-emergence action against PHBPU in %,PHBPU [6],90%
same,Pre-emergence action against POLCO in %,POLCO; dosage 20 g/ha,80%
same,Pre-emergence action against POLCO in %,POLCO; dosage 80 g/ha,90%
same,Pre-emergence action against SETVI in %,SETVI [7],100%
same,Pre-emergence action against VERPE in %,VERPE [8]; dosage 20 g/ha,90%
same,Pre-emergence action against VERPE in %,VERPE [8]; dosage 80 g/ha,90%
same,Pre-emergence action against VIOTR in %,VIOTR [9]; dosage 20 g/ha,90%
same,Pre-emergence action against VIOTR in %,VIOTR [9]; dosage 80 g/ha,90%
same,Post-emergence action against ABUTH in %,ABUTH [10]; dosage 20 g/ha,80%
same,Post-emergence action against ALOMY in %,ALOMY [11]; dosage 20 g/ha,80%
same,Post-emergence action at 20 g/ha against AMARE in %,AMARE [18],100%
same,Post-emergence action against ECHCG in %,ECHCG [12]; dosage 5 g/ha,80%
same,Post-emergence action against ECHCG in %,ECHCG [12]; dosage 20 g/ha,90%
same,Post-emergence action against MATIN in %,MATIN [13],80%
same,Post-emergence action against PHBPU in %,PHBPU [14]; dosage 5 g/ha,80%
same,Post-emergence action against PHBPU in %,PHBPU [14]; dosage 20 g/ha,90%
same,Post-emergence action against SETVI in %,SETVI [15],90%
same,Post-emergence action against VERPE in %,VERPE [16],80%
same,Post-emergence action against VIOTR in %,VIOTR [17]; 20 g/ha,80%
CCCNC(=O)c1c(C(F)F)ccc(C(=O)Nc2nnnn2CC)c1C [Example 2-344],pest or weed control at 80 g/ha,"ABUTH [1]; Abutilon theophrasti, 504 h, 80 g/ha, scored visually after 3 weeks vs untreated controls (100% = plants have died, 0% = like control plants)",100%
same,pest or weed control at 20 g/ha,"ABUTH [1]; Abutilon theophrasti, 504 h, dosage 20 g/ha, scored visually after 3 weeks vs untreated controls, 100% = plants have died, 0% = like control plants, read-out: Pre-emergence action against ABUTH (herbicidal activity in percent)",100%
same,pest or weed control at 80 g/ha,"ALOMY [2]; Alopecurus myosuroides, 504 h, 80 g/ha, pre-emergence, scored visually after 3 weeks vs untreated controls (100% = plants have died, 0% = like control plants)",100%
same,pest or weed control at 20 g/ha,"ALOMY [2]; Alopecurus myosuroides, pre-emergence, 504 h, 20 g/ha, scored visually after 3 weeks, 100% = plants have died, 0% = like control plants",80%
same,pest or weed control at 20 g/ha,"AMARE [3]; Amaranthus retroflexus, 504 h, 20 g/ha, scored visually after 3 weeks vs untreated controls, 100% = plants have died, 0% = like control plants",100%
same,pest or weed control at 80 g/ha,"AMARE [3]; Amaranthus retroflexus, 504 h, 80 g/ha, scored visually after 3 weeks vs untreated controls, 100% = plants have died, 0% = like control plants",100%
same,pest or weed control at 80 g/ha,"AVEFA; Avena fatua, 504 h, 80 g/ha, pre-emergence",80%
same,pest or weed control at 20 g/ha,"ECHCG [4]; Echinochloa crus-galli, 504 h, 20 g/ha",90%
same,pest or weed control at 80 g/ha,"ECHCG [4]; Echinochloa crus-galli, 504 h, 80 g/ha",100%
same,pest or weed control at 20 g/ha,"MATIN [5]; Tripleurospermum inodorum, 504 h, dosage 20 g/ha",100%
same,pest or weed control at 80 g/ha,"MATIN [5]; Tripleurospermum inodorum, 504 h, dosage 80 g/ha",100%
same,pest or weed control at 80 g/ha,"PHBPU [6]; Ipomoea purpurea, 504 h",90%
same,pest or weed control at 80 g/ha,"POLCO; Fallopia convolvulus, 504 h, dosage 80 g/ha",90%
same,pest or weed control at 80 g/ha,"SETVI [7]; Setaria viridis, 504 h",80%
same,pest or weed control at 80 g/ha,"VERPE [8]; Veronica persica, 504 h, dosage 80 g/ha",80%
same,pest or weed control at 20 g/ha,"VIOTR [9]; Viola tricolor, 504 h, dosage 20 g/ha",80%
same,pest or weed control at 80 g/ha,"VIOTR [9]; Viola tricolor, 504 h, dosage 80 g/ha",100%
same,pest or weed control at 5 g/ha,"ABUTH [10]; Abutilon theophrasti, 504 h, dosage 5 g/ha",90%
same,pest or weed control at 20 g/ha,"ABUTH [10]; Abutilon theophrasti, 504 h, dosage 20 g/ha",90%
same,pest or weed control at 5 g/ha,"ALOMY [11]; Alopecurus myosuroides, 504 h, dosage 5 g/ha",80%
same,pest or weed control at 20 g/ha,"ALOMY [11]; Alopecurus myosuroides, 504 h, dosage 20 g/ha",90%
same,pest or weed control at 20 g/ha,"AMARE [18]; Amaranthus retroflexus, 504 h",100%
same,pest or weed control at 5 g/ha,"ECHCG [12]; Echinochloa crus-galli, 504 h, dosage 5 g/ha",80%
same,pest or weed control at 20 g/ha,"ECHCG [12]; Echinochloa crus-galli, 504 h, dosage 20 g/ha",90%
same,pest or weed control at 20 g/ha,"MATIN [13]; Tripleurospermum inodorum, 504 h",80%
same,pest or weed control at 20 g/ha,"PHBPU [14]; Ipomoea purpurea, 504 h, dosage 20 g/ha",80%
same,pest or weed control at 20 g/ha,"SETVI [15]; Setaria viridis, 504 h",80%
same,pest or weed control at 20 g/ha,"VERPE [16]; Veronica persica, 504 h",80%
same,pest or weed control at 5 g/ha,"VIOTR [17]; Viola tricolor, 504 h, 5 g/ha",90%
same,pest or weed control at 20 g/ha,"VIOTR [17]; Viola tricolor, 504 h, 20 g/ha",100%
